# Source: patent publication US20050282818A1, “Ubiquitin ligase inhibitors” (Rigel Pharmaceuticals, Inc., priority 2004, published 2005)
# Assays:
# [1] = molecular target: T1, TRAF6/Uev1A/Ubc13 (Homo sapiens, UniProt Q9Y4K3); experiment: TRAF6/Uev1A/Ubc13 plate-based ubiquitin ligase assay; type: biochemical
# T1 sequence (Q9Y4K3 1-522): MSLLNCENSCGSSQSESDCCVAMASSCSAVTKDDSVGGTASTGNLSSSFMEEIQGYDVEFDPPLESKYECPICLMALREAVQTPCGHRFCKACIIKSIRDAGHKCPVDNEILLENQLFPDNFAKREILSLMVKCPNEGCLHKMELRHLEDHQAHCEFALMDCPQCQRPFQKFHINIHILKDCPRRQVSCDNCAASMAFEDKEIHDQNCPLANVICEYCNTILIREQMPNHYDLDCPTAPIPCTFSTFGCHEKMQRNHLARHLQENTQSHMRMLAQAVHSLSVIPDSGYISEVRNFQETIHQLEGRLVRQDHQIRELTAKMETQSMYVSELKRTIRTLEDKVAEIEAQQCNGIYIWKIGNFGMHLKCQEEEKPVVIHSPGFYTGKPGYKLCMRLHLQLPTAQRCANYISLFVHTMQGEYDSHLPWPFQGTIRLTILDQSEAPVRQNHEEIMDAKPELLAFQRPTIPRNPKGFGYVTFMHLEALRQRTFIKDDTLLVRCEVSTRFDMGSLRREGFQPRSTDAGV
# How it was run: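 Ligase activity was read as luminescence from anti-Flag/HRP detection of Flag-ubiquitin bound to casein-blocked Ni-plates alongside His-ubiquitin after a 1 h room-temperature reaction. Buffer: 62.5 mM Tris pH 7.5, 6.25 mM MgCl2, 1.0 mM DTT, 2 μM ATP; E1, Uev1a/Ubc13 and TRAF6 added last to start. IC50s derived across compound concentrations.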
# [2] = molecular target: APC11/APC2 (Homo sapiens, UniProt Q9NYG5+Q9UJX6); experiment: APC-11/APC-2 ligase assay (APC auto ubiquitination); type: biochemical; conditions: APC assay
# How it was run: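 His-tagged APC was captured on nickel plates with human E1 (5 ng/well), UbcH5c (20 ng/well), APC (100 ng/well) and Flag-ubiquitin (100 ng/well) in a Tris pH 7.6 reaction buffer containing 2.5 mM ATP, for 1 hour at room temperature. Read-out was anti-Flag/HRP chemiluminescence. IC50 was set against a DMSO control, typically from 6 or 8 concentrations.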
# [3] = system: ICAM-1 expression in A549 cells; experiment: ICAM assay (IL-1 induced ICAM-1/CD54 expression in A549 cells); type: cell-based, human; conditions: Homo sapiens, A549, ICAM assay
# How it was run: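 A549 cells, 10,000/well, preincubated with compound 1 h at 37° C, then stimulated with IL-1 (4 μl of 25 ng/ml added) for 4 h. Surface ICAM-1 detected by anti-CD54 plus anti-mouse IgG staining for 1 h, luminescent read-out after PBS washes.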
# Chain of APC11/APC2 (Q9NYG5 whole entry): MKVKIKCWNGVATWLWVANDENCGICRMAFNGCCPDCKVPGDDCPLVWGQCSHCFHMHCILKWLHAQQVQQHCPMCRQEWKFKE
# Chain of APC11/APC2 (Q9UJX6 whole entry): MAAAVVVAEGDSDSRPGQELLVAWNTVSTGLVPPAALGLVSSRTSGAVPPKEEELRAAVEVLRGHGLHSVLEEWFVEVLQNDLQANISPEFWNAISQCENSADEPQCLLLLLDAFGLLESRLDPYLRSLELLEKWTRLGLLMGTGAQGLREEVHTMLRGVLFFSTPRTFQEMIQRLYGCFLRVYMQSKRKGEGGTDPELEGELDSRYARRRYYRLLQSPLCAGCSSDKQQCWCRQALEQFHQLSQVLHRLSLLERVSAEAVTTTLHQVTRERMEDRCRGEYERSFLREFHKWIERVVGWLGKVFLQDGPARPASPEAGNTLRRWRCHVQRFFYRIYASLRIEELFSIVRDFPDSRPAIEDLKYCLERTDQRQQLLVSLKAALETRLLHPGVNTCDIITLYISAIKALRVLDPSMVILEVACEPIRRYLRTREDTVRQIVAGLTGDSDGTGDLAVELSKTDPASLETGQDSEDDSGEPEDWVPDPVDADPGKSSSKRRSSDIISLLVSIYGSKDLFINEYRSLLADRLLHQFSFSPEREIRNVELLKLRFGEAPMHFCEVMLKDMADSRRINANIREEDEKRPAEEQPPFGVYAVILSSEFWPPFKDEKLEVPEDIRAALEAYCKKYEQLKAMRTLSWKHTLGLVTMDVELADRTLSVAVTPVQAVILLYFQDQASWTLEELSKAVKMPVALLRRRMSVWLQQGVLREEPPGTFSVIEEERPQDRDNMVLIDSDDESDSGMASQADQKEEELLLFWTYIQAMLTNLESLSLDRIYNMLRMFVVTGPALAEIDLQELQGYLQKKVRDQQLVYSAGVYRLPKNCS
Compound,IC50 [1] [µM],IC50 [2] [µM],IC50 [3] [µM]
"Nc1cccc2c(NS(=O)(=O)c3ccc(Cl)c4nonc34)cccc12 [compound 387, N-(5-aminonaphthalen-1-yl)-7-chloro-2,1,3-benzoxadiazole-4-sulfonamide]",≥ 20,≥ 20,1 to 20
"O=[N+]([O-])c1ccc(NS(=O)(=O)c2ccc(Cl)c3nonc23)c2ccccc12 [compound 388, 7-chloro-N-(4-nitronaphthalen-1-yl)-2,1,3-benzoxadiazole-4-sulfonamide]",≥ 20,≥ 20,≥ 20
Nc1cccc2c(NS(=O)(=O)c3ccc(N4CCOCC4)c4nonc34)cccc12 [compound 389],≥ 20,≥ 20,≥ 20
"Nc1cccc2c(NS(=O)(=O)c3ccc(Sc4cccc5cccnc45)c4nonc34)cccc12 [compound 390, N-(5-aminonaphthalen-1-yl)-7-(quinolin-8-ylthio)-2,1,3-benzoxadiazole-4-sulfonamide]",1 to 20,1 to 20,≥ 20
"Nc1ccc(OS(=O)(=O)c2ccc(Cl)c3nonc23)c2ccccc12 [compound 391, 4-aminonaphthalen-1-yl 7-chloro-2,1,3-benzoxadiazole-4-sulfonate]",1 to 20,1 to 20,1 to 20
"O=S(=O)(Nc1cccc2ccccc12)c1ccc(Cl)c2nonc12 [compound 392, 7-chloro-N-(naphthalen-1-yl)-2,1,3-benzoxadiazole-4-sulfonamide]",≥ 20,≥ 20,1 to 20
"O=S(=O)(Nc1ccc(O)c2ccccc12)c1ccc(Cl)c2nonc12 [compound 393, 7-chloro-N-(4-hydroxynaphthalen-1-yl)-2,1,3-benzoxadiazole-4-sulfonamide]",1 to 20,1 to 20,1 to 20
"O=S(=O)(Nc1ccc(OS(=O)(=O)c2ccc(Cl)c3nonc23)c2ccccc12)c1ccc(Cl)c2nonc12 [compound 394, 4-(7-chloro-2,1,3-benzoxadiazole-4-sulfonamido)naphthalen-1-yl 7-chloro-2,1,3-benzoxadiazole-4-sulfonate]",1 to 20,1 to 20,1 to 20
"Nc1ccc(Nc2cccc(F)c2F)c2nonc12 [compound 396, 7-{(2,3-difluorophenyl)amino}-2,1,3-benzoxadiazol-4-amine]",≥ 20,≥ 20,≥ 20
"O=[N+]([O-])c1ccc(Nc2cccc(F)c2F)c2nonc12 [compound 397, N-(2,3-difluorophenyl)-7-nitro-2,1,3-benzoxadiazol-4-amine]",≥ 20,≥ 20,≥ 20
"Nc1ccc(Nc2ccc3[nH]ncc3c2)c2nonc12 [compound 398, N-(1H-indazol-5-yl)-2,1,3-benzoxadiazole-4,7-diamine]",≥ 20,≥ 20,1 to 20
"O=C(O)c1ccc(NS(=O)(=O)c2ccc(Cl)c3nonc23)cc1 [compound 399, 4-(7-chloro-2,1,3-benzoxadiazole-4-sulfonamido)benzoic acid]",≥ 20,≥ 20,≥ 20
"O=[N+]([O-])c1ccc(Nc2ccccc2F)c2nonc12 [compound 401, N-(2-fluorophenyl)-7-nitro-2,1,3-benzoxadiazol-4-amine]",≥ 20,≥ 20,≥ 20
"O=S(=O)(Nc1cccc(F)c1F)c1ccc(Sc2ccc(O)cc2)c2nonc12 [compound 402, N-(2,3-difluorophenyl)-7-([4-hydroxyphenyl]thio)-2,1,3-benzoxadiazole-4-sulfonamide]",≥ 20,1 to 20,≥ 20
"COc1ccccc1C(=O)Nc1ccc(Nc2cccc(F)c2F)c2nonc12 [compound 403, N-(7-[{2,3-difluorophenyl}amino]-2,1,3-benzoxadiazol-4-yl)-2-methoxybenzamide]",≥ 20,≥ 20,≥ 20
"COc1ccccc1Nc1ccc(S(=O)(=O)Nc2ccccc2F)c2nonc12 [compound 404, N-(2-fluorophenyl)-7-([2-methoxyphenyl]amino)-2,1,3-benzoxadiazole-4-sulfonamide]",≥ 20,≥ 20,≥ 20

Compound,IC50 [1] [µM],IC50 [2] [µM],IC50 [3] [µM]
"Fc1cc2nonc2c(N2CCOCC2)c1F [compound 405, 5,6-difluoro-4-(morpholin-4-yl)-2,1,3-benzoxadiazole]",≥ 20,≥ 20,≥ 20
"Fc1c(N2CCOCC2)cc2nonc2c1F [compound 406, 4,5-difluoro-6-(morpholin-4-yl)-2,1,3-benzoxadiazole]",≥ 20,≥ 20,≥ 20
"O=S(=O)(Nc1cccc2ccccc12)c1ccc(Sc2cccc3cccnc23)c2nonc12 [compound 407, N-(naphthalen-1-yl)-7-(quinolin-8-ylthio)-2,1,3-benzoxadiazole-4-sulfonamide]",1 to 20,1 to 20,1 to 20
"COc1cccc(Nc2ccc3nonc3c2S(=O)(=O)Nc2cccc(OC)c2OC)c1OC [compound 408, N-(2,3-dimethoxyphenyl)-5-([2,3-dimethoxyphenyl]amino)-2,1,3-benzoxadiazole-4-sulfonamide]",≥ 20,≥ 20,1 to 20
"COc1cccc(NS(=O)(=O)c2c(Cl)ccc3nonc23)c1OC [compound 409, 5-chloro-N-(2,3-dimethoxyphenyl)-2,1,3-benzoxadiazole-4-sulfonamide]",≥ 20,≥ 20,1 to 20
"COc1cccc(NS(=O)(=O)c2ccc(Cl)c3nonc23)c1OC [compound 410, 7-chloro-N-(2,3-dimethoxyphenyl)-2,1,3-benzoxadiazole-4-sulfonamide]",≥ 20,≥ 20,1 to 20
"O=S(=O)(c1c(Cl)cc(Cl)c2nonc12)N1CCOCC1 [compound 411, 5,7-dichloro-4-{(morpholin-4-yl)sulfonyl}-2,1,3-benzoxadiazole]",1 to 20,≥ 20,1 to 20
"O=S(=O)(c1c(N2CCOCC2)cc(Cl)c2nonc12)N1CCOCC1 [compound 412, 7-chloro-5-(morpholin-4-yl)-4-{(morpholin-4-yl)sulfonyl}-2,1,3-benzoxadiazole]",≥ 20,≥ 20,1 to 20
"COc1cccc(NS(=O)(=O)c2ccc(Sc3cccc4ccccc34)c3nonc23)c1OC [compound 413, N-(2,3-dimethoxyphenyl)-7-(naphthalen-1-ylthio)-2,1,3-benzoxadiazole-4-sulfonamide]",1 to 20,1 to 20,1 to 20
"O=S(=O)(Nc1c(F)cccc1F)c1c(Cl)cc(Cl)c2nonc12 [compound 414, 5,7-dichloro-N-(2,6-difluorophenyl)-2,1,3-benzoxadiazole-4-sulfonamide]",1 to 20,1 to 20,1 to 20
"O=S(=O)(Nc1cccc2ccccc12)c1c(Nc2cccc3ccccc23)cc(Cl)c2nonc12 [compound 415, 7-chloro-N-(naphthalen-1-yl)-5-(naphthalen-1-ylamino)-2,1,3-benzoxadiazole-4-sulfonamide]",1 to 20,1 to 20,1 to 20
"O=S(=O)(Nc1cccc2ccccc12)c1c(Cl)cc(Cl)c2nonc12 [compound 416, 5,7-dichloro-N-(naphthalen-1-yl)-2,1,3-benzoxadiazole-4-sulfonamide]",1 to 20,1 to 20,1 to 20
"O=S(=O)(Nc1cccc2ccccc12)c1c(Cl)cc(Nc2cccc3ccccc23)c2nonc12 [compound 417, 5-chloro-N-(naphthalen-1-yl)-7-(naphthalen-1-ylamino)-2,1,3-benzoxadiazole-4-sulfonamide]",1 to 20,1 to 20,1 to 20
"FC(F)(F)c1cccc(-c2cc(-c3cccc(C(F)(F)F)c3)c3nonc3c2)c1 [compound 418, 4,6-bis(3-[trifluoromethyl]phenyl)-2,1,3-benzoxadiazole]",≥ 20,≥ 20,≥ 20
"Cc1cccc(-c2cc(-c3cccc(C)c3)c3nonc3c2)c1 [compound 419, 4,6-bis(3-methylphenyl)-2,1,3-benzoxadiazole]",≥ 20,≥ 20,≥ 20
